{"source": "patent US10314847B2", "about": "“Scalarane sesterterpenoid, pharmaceutical composition and topoisomerase II and Hsp90 inhibitor for treating cancer, and use and preparation method thereof” (NATIONAL DONG HWA UNIVERSITY, priority 2017, dated 2019)", "key": {"Molt 4 cells [1]": {"tested_on": "Molt 4 cells", "experiment": "Neutral comet assay for DNA double-strand breaks", "format": "cell-based, human", "settings": "0.0625 μg/mL, 0, 3, 6 and 9 hours", "description": "Neutral Comet Assay for Detection of DNA Double-Strand Breaks (DSBs):\nThe assay was carried out using a CometAssay™ Kit (Trevigen, Gaithersburg, Md., U.S.A.) following the manufacturer's protocol for the neutral Comet assay. Briefly, cancer cells (2×10^5 cells/mL) were treated with compound 1 (0.0625 μg/mL) at the indicated time. Cells were combined with 1% low melting point agarose at a ratio of 1:10 (v/v) and immediately 75 μL of the mixture was pipetted onto CometSlide™ and allowed to set at 4° C. in the dark. The slides were immersed in an ice-cold lysis solution (Trevigen) for 30 to 60 minutes. […] The fluorescence images were analyzed using the TriTek Comet Image program to circumscribe the “head” and the “tail” regions of each comet and the integrated fluorescence values of each defined area were recorded. The comet length was measured from the trailing edge of the nucleus to the leading edge of the tail. […] The results were expressed as mean±standard deviation (SD) (*p<0.05).\nOxidative stress is manifested by ROS overexpression and cannot be balanced by the available antioxidant machinery. […] The induction of the intracellular formation of ROS by compound 1 was determined with a carboxyl derivative of fluorescein, carboxy-H2DCFDA dye using flow cytometric analysis. […]"}, "[2]": {"target": "T1, Hsp90 protein (PDB ID: 1YET) (Homo sapiens, UniProt P07900)", "T1 construct": "Compound 1 could be docked to the N-terminal domain of Hsp90", "experiment": "Molecular docking (Autodock 4.2)", "from_the_text": "It is known that mitochondria are critical intracellular loci of ROS production and ROS exposure can lead to the […] opening. The antioxidant, microsomal GST1, in the inner mitochondrial membrane can interact with the mitochondrial permeability transition (MPT) regulator proteins, such as ANT and/or CypD, to form a MPT pore contributing to mitochondria-mediated cell death. In addition, mitochondrial homeostasis of tumor cells is regulated by an organelle-specific Hsp90 chaperone network."}, "U937": {"tested_on": "U937", "experiment": "MTT assay, cytotoxic effect on U937", "format": "cell-based", "settings": "Homo sapiens, U-937; U937, molar value in text", "from_the_text": "(§1) The cell lines were obtained from the American Type Culture Collection (ATCC, Manassas, Va., U.S.A.) or the Japanese Collection of Research Biosources (JCRB) Cell Bank (Japan). […] Antibodies against XIAP, NFκB (p65), GADD, CDK 4, HSF 1, ATF 6 and β-tubulin were obtained from Santa Cruz Biotechnology (Santa Cruz, Calif., U.S.A.). The Hybond ECL transfer membrane and ECL Western blotting detection kits were obtained from Amersham Life Sciences (Amersham, U.K.).\n(§2) Several cancer cell lines including leukemia K562, Molt 4, and HL 60 cells, prostate cancer LNCaP cells, colon cancer DLD-1 cells and breast cancer T-47D cells were used to evaluate the antiproliferative activity (referring to Table 2)."}, "[3]": {"tested_on": "apoptosis-related proteins", "experiment": "Western blot of apoptosis-related proteins", "format": "cell-based, human", "settings": "Molt 4 cells, time-dependent", "description": "(§3) Oxidative stress is manifested by ROS overexpression and cannot be balanced by the available antioxidant machinery. Compound 1 of the present invention can damage the integrity of mitochondria, which are the major production sites of the superoxide anion, […]. The induction of the intracellular formation of ROS by compound 1 was determined with a carboxyl derivative of fluorescein, carboxy-H2DCFDA dye using flow cytometric analysis. […] In addition, ROS generation could induce ER stress leading to mitochondria-related apoptosis. To further investigate if ER stress is involved in the apoptotic effect induced by compound 1, Western blot analysis was used to determine the expression of ER stress-related proteins. […] Furthermore, the effect of compound 1 on the release of intracellular Ca^2+, was evaluated using fluorescent calcium indicator, Fluo 3. […] In FIG. 4(D), the induction of the typical executor caspases-3 and -7, and γH2AX, was also observed using Western blot analysis. To confirm the induction of DNA damage by compound 1 in Molt 4 cells, a comet assay under neutral electrophoresis condition was utilized. Thus, the effect of compound 1 (0.0625 μg/mL) at different time intervals (0, 3, 6 and 9 hours) on the level of nuclear DNA integrity was determined. […]"}, "Molt 4 cells [4]": {"tested_on": "Molt 4 cells", "experiment": "JC-1 staining, mitochondrial membrane potential disruption", "format": "cell-based, human", "settings": "Molt 4 cells, 0.0625, 0.125 and 0.25 μg/mL, 24 hours, dose-dependent", "description": "Determination of Reactive Oxygen Species (ROS) Generation, Calcium Accumulation, and Matrix Metalloproteinase (MMP) Disruption:\nMMP disruption, calcium accumulation and ROS generation were detected with the JC-1 cationic dye (5 μg/mL), the fluorescent calcium indicator (Fluo 3, […]) and the carboxy derivative of fluorescein (carboxy-H2DCFDA, […]), respectively. In brief, the treated cells were labeled with a specific fluorescent dye for 30 minutes. After labeling, cells were washed with PBS and resuspended in PBS at a concentration of 1×10^6 cells/mL before analysis via flow cytometry."}, "K562": {"tested_on": "K562", "experiment": "MTT assay, cytotoxic effect on K562", "format": "cell-based", "settings": "Homo sapiens; K562, molar value in text", "from_the_text": "as §1, §2"}, "[5]": {"tested_on": "ER stress-related proteins", "experiment": "Western blot of ER stress-related proteins", "format": "cell-based, human", "settings": "Molt 4 cells, time-dependent", "description": "as §3"}, "Molt 4 cells [6]": {"tested_on": "Molt 4 cells", "experiment": "Annexin V/PI apoptosis assay", "format": "cell-based, human", "settings": "Molt 4 cells, 0.0625, 0.125 and 0.25 μg/mL, 24 hours, dose-dependent", "description": "Annexin V/Propidium Iodide (PI) Apoptosis Assay:\nThe externalization of phosphatidylserine (PS) and membrane integrity were quantified using an annexin V-fluorescein isothiocyanate (annexin V-FITC) staining kit. In brief, 10^6 cells were grown in 35 mm diameter plates and were labeled with annexin V-FITC (10 μg/mL) and PI (20 μg/mL) prior to harvesting. After labeling, all plates were washed with a binding buffer and harvested. Cells were resuspended in the binding buffer at a concentration of 2×10^5 cells/mL before analysis by flow cytometer FACS-Calibur (Becton-Dickinson, San Jose, Calif., U.S.A.) and CellQuest software. Approximately 10,000 cells were counted for each determination."}, "γH2AX": {"tested_on": "γH2AX", "experiment": "Western blot of γH2AX expression in Molt 4 cells", "format": "cell-based, human", "settings": "Molt 4 cells, 0.0625, 0.125 and 0.25 μg/mL, 24 hours", "description": "Protein expression was analyzed with Western blotting. GAPDH was used as the loading control.\nIn order to confirm whether the DNA damage-induced by the marine terpenoids of the present invention involved the inhibition of Topo II activity, a cell-free DNA cleavage assay using an enzyme-mediated negatively supercoiled pHOT1 plasmid DNA was applied. […] These marine terpenoids suppressed Topo II activity, resulting in the inhibition of supercoiled DNA relaxation in a dose-dependent manner (FIG. 2(A)). […] To determine whether the apoptotic mechanism of compounds 1 to 3 affects γH2AX (as a biomarker of DNA damage) induction, Western blot analysis was employed to examine the activation of γH2AX."}}}
{"smiles": "CC[C@@]1(C)CCC[C@]2(C)[C@H]3C[C@@H](OC(=O)C[C@@H](C)O)[C@]4(C)[C@@H](C=O)C(C(C)=O)=CC[C@H]4[C@]3(C)CC[C@@H]12", "note": "(relative stereo) [Compound 1, 12β-(3′β-hydroxybutanoyloxy)-20,24-dimethyl-24-oxo-scalara-16-en-25-al]", "values": [{"measurement": "DNA migration (comet tail, DSBs)", "setting": "Molt 4 cells [1]", "result": "increased the degree of DNA migration"}, {"measurement": "Potency of Hsp90 inhibition constant relative to 17-AAG", "setting": "[2]", "result": "> 1430", "unit": "folds"}, {"measurement": "IC50", "setting": "U937", "result": 2.08, "unit": "nM"}, {"measurement": "Cleavage of apoptosis-related proteins", "setting": "[3]", "result": "PARP, caspases-8 and -9 cleavages were significantly increased in a time-dependent manner"}, {"measurement": "Mitochondrial membrane potential (JC-1)", "setting": "Molt 4 cells [4]", "result": "disruption in mitochondrial membrane potential"}, {"measurement": "IC50", "setting": "K562", "result": 2.08, "unit": "nM"}, {"measurement": "Expression of ER stress-related proteins", "setting": "[5]", "result": "promoted the levels of Bip, Chop, Grp 94 and the activation and cleavage of ATF 6 but suppressed the levels of PERK and IRE 1"}, {"measurement": "Apoptotic population (annexin-V/PI)", "setting": "Molt 4 cells [6]", "result": "increase in the apoptotic population"}, {"measurement": "Expression of γH2AX (DNA damage biomarker)", "setting": "γH2AX", "result": "significantly enhanced the expression of γH2AX in a dose-dependent manner"}]}
